“And” between values parts separate entries of the source, which are not always exact repeats. Equal values may be shown once.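 Growth conditions: 96-well plates. Treatment: test compound, 48 hours, 5 concentrations. Analysis: linear interpolation between bracketing concentrations; unreached endpoints set to highest concentration. GI50: concentration for 50% inhibition of growth. TGI denotes the concentration required for complete inhibition of growth.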
How the values were obtained:
Experiment in all cases: inhibition of tumour cell growth, NCI panel, 48 h
[1] = test system: A549 NSCLC
[2] = test system: DU-145 prostate
[3] = test system: HCT-15 colon
[4] = test system: MALME-3M melanoma
[5] = test system: NCI-H23 lung
[6] = test system: OVCAR-3 ovarian
[7] = test system: SK-MEL-5 melanoma
[8] = test system: SN12C renal
[9] = test system: SNB-19 CNS
[10] = test system: TK-10 renal

SMILES	GI50 [1]	TGI [1]	GI50 [2]	TGI [2]	GI50 [3]	TGI [3]	GI50 [4]	TGI [4]	GI50 [5]	TGI [5]	GI50 [6]	TGI [6]	GI50 [7]	TGI [7]	GI50 [8]	TGI [8]	GI50 [9]	TGI [9]	GI50 [10]	TGI [10]
COc1ccc(-c2cc(-c3cc(OC)c(OC)c(OC)c3)c(C#N)c(N3CCOCC3)n2)cc1O	4.71 µM	> 100 µM	5.3 µM	> 100 µM	1.89 µM	> 60.3 µM	> 100 µM	> 100 µM	26.7 µM	> 100 µM	2.81 µM	8.33 µM	3.3 µM	> 75.2 µM	4.69 µM	> 100 µM	5.33 µM	> 100 µM	> 59.8 µM	> 100 µM
CN(C[C@@H]1COCCO1)S(=O)(=O)Nc1ccc2ccc3ncc(-c4cnn(C)c4)cc3c(=O)c2c1	6.64 µM	> 100 µM	6.86 µM	> 100 µM	3.64 µM	> 100 µM	5.43 µM	> 100 µM	1.77 µM	> 100 µM	11.8 µM	> 100 µM	6.42 µM	> 100 µM	3.53 µM	> 100 µM	12.5 µM	> 100 µM	2.64 µM	> 100 µM
CCOC(=O)c1cc2c(n1Cc1ccccc1)-c1oncc1CC2	4.93 µM	> 100 µM	11.4 µM	44 µM	3.58 µM	56.2 µM	6.28 µM	37 µM	6.37 µM	67.1 µM	3.06 µM	10.5 µM	2.97 µM	12 µM	10 µM	55.8 µM	7 µM	> 100 µM	14.4 µM	> 100 µM
Cc1c(NC(=O)OC[C@@H]2COCCN2)cn2ncnc(Nc3ccc4c(cnn4Cc4cccc(F)c4)c3)c12	> 10 µM and 8.26 µM	> 10 µM and 21.5 µM	9.5 µM and 4.26 µM	> 10 µM and 20.6 µM	5.81 µM and 6.14 µM	> 10 µM and 21.4 µM	> 10 µM and 10.5 µM	> 10 µM and 31.2 µM	> 10 µM and 11.9 µM	> 10 µM and 26.4 µM	> 10 µM and 6.66 µM	> 10 µM and 21.5 µM	5.3 µM and 5.56 µM	> 10 µM and 17.4 µM	> 10 µM and 3.32 µM	> 10 µM and 20.4 µM	> 10 µM and 9.04 µM	> 10 µM and 23.2 µM	0.546 µM and 0.415 µM	> 10 µM and 15.7 µM
C=C1C(=O)O[C@H]2[C@H]1CC/C(COC(=O)c1ccc(C#N)cc1)=C\CC[C@@]1(C)O[C@@H]21	6 µM	20.5 µM	1.5 µM	2.83 µM	1.44 µM	3.22 µM	2.04 µM	4.16 µM	2.25 µM	6 µM	1.36 µM	2.75 µM	1.85 µM	3.75 µM	2.22 µM	5.75 µM	3.9 µM	15.1 µM	3.99 µM	10.8 µM
N#Cc1ccc(C(c2ccc(C#N)cc2)n2cncn2)cc1	> 5000 µM	> 5000 µM	> 5000 µM	> 5000 µM	> 5000 µM	> 5000 µM	> 5000 µM	> 5000 µM	> 5000 µM	> 5000 µM	> 5000 µM	> 5000 µM	3.33 µM	> 5000 µM	> 5000 µM	> 5000 µM	> 5000 µM	> 5000 µM	1310 µM	> 5000 µM
C/C(Cc1ccc(Cl)cc1)=C(/c1ccc(Cl)cc1)c1ccc(OCCN(C)C)cc1	4.52 µM	10.3 µM	4.74 µM	9.44 µM	1.19 µM	4.27 µM	3.68 µM	8.63 µM	4.54 µM	9.14 µM	4.53 µM	9.2 µM	4.4 µM	8.78 µM	4.18 µM	8.59 µM	5.04 µM	9.62 µM	5.1 µM	10.8 µM
O=C(O)c1ccc2c(c1)nc(Nc1cccc(Cl)c1)c1ccncc12	7.23 µM and 6.64 µM	27.4 µM and > 10 µM	4.92 µM and 6.02 µM	47.3 µM and > 10 µM	3.12 µM and 2.92 µM	21.7 µM and > 10 µM	1.91 µM and 2.68 µM	7.71 µM and > 10 µM	2.37 µM and 2.98 µM	8.29 µM and > 10 µM	1.2 µM and 1.68 µM	4.15 µM and > 10 µM	1.86 µM and 2.08 µM	4.76 µM and 5.38 µM	3.88 µM and 3.71 µM	> 100 µM	3.04 µM and 3.46 µM	> 100 µM	3.67 µM and 2.13 µM	25.2 µM and > 10 µM
CSc1ccc(/C=C/c2ccnc3ccccc23)cc1	–	25 µM	–	32.7 µM	–	25.7 µM	–	32.6 µM	–	28.4 µM	–	25.9 µM	–	18.9 µM	–	28.8 µM	–	34 µM	–	26.8 µM
O=C(CCCCCCSc1nc(-c2ccc(Cl)cc2)cc(-c2ccc(Cl)cc2)n1)NO	1.42 µM	5.1 µM	1.46 µM	4.9 µM	1.76 µM	> 50 µM	1.16 µM	4.45 µM	1.32 µM	4.33 µM	1.38 µM	4.91 µM	1.19 µM	2.74 µM	1.6 µM	6.24 µM	1.97 µM	20.4 µM	1.61 µM	11.9 µM
Nc1nc(N)c2nc(CNc3ccc(C(=O)NC(CCCNC(=O)c4ccccc4C(=O)O)C(=O)O)cc3)cnc2n1 (configuration not stated)	0.00379 µM	> 100 µM	–	> 100 µM	0.00105 µM	> 100 µM	–	> 100 µM	0.00401 µM	> 100 µM	< 0.0157 µM and 0.0676 µM	> 100 µM	0.00577 µM	> 100 µM	0.00227 µM	> 100 µM	–	> 100 µM	0.031 µM	> 100 µM
Cc1nc(N)sc1C(=O)Nc1cc(C(=O)NCCCN(C)C)n(C)c1	> 100 µM	> 100 µM	67.3 µM	> 100 µM	> 100 µM	> 100 µM	> 100 µM	> 100 µM	> 100 µM	> 100 µM	> 100 µM	> 100 µM	> 100 µM	> 100 µM	> 100 µM	> 100 µM	> 100 µM	> 100 µM	> 100 µM	> 100 µM
